Experimental data: ChEMBL document CHEMBL1157139, “A structural analysis of the differential cytotoxicity of chemicals in the NCI-60 cancer cell lines” (2008)

How the values were obtained:
Format in all cases: functional
NCI-H23 = assay: Cytotoxicity against human NCI-H23 cells; details: for CC50: read-out: pLC50 (the source's name) (converted); for TGI: read-out: pTGI (converted)
A549 = assay: Cytotoxicity against human A549 cells; details: for GI50: A549; for CC50: A549, read-out: pLC50 (converted); for TGI: A549, read-out: pTGI (converted)
NCI-H522 = assay: Cytotoxicity against human NCI-H522 cells; details: for TGI: read-out: pTGI (converted)

Structure (SMILES)	GI50 (NCI-H23) [µM]	CC50 (NCI-H23) [µM]	TGI (NCI-H23) [µM]	GI50 (A549) [µM]	CC50 (A549) [µM]	TGI (A549) [µM]	GI50 (NCI-H522) [µM]	TGI (NCI-H522) [µM]
O=C(O)c1ccccn1 [2-PICOLINIC ACID]	61.8	88.5	74	65.2	> 100	82	0.693	1.05
C[C@@H]1C[C@@H]([C@H](O)CC2CC(=O)NC(=O)C2)C(=O)[C@@H](C)C1 [CYCLOHEXIMIDE]	> 100	> 100	> 100	> 100	> 100	> 100	> 100	> 100
